Data as given in patent US11051515B2, “3-acyl-benzamides and their use as herbicides” (Bayer Aktiengesellschaft, priority 2017, dated 2021).

Experiments:
[1] = system: STEME; experiment: Pre-emergence action against STEME; type: in vivo, Stellaria media; settings: Dosage 320 g/ha, pre-emergence
In short: (§1)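 Seeds sown in sandy loam in wood-fiber pots and covered with soil. Greenhouse growth; visual damage scored after 3 weeks versus untreated controls (100% = dead, 0% = like control).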

[2] = system: STEME; experiment: Post-emergence action against STEME; type: in vivo, Stellaria media; settings: post-emergence, dosage 80 g/ha
In short: (§2)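 Post-emergence foliar spray on greenhouse plants at the one-leaf stage, using wettable-powder or emulsion-concentrate formulations in water (600 to […], plus 0.2% wetting agent). Damage scored by eye roughly 3 weeks later against untreated plants: 0% = like control, 100% = dead.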

[3] = system: VERPE; experiment: Pre-emergence action against VERPE; type: in vivo, Veronica persica; settings: Dosage 320 g/ha, pre-emergence
In short: as §1

[4] = system: AMARE; experiment: Pre-emergence action against AMARE; type: in vivo, Amaranthus retroflexus
In short: as §1

[5] = system: ECHCG; experiment: Pre-emergence action against ECHCG; type: in vivo, Echinochloa crus-galli; settings: pre-emergence, dosage 320 g/ha, scored visually after 3 weeks vs untreated controls
In short: as §1

[6] = system: VIOTR; experiment: Pre-emergence action against VIOTR; type: in vivo, Viola tricolor; settings: for Herbicidal efficacy against VIOTR: 20 g of a.i./ha
In short: as §1

[7] = system: ABUTH; experiment: Pre-emergence action against ABUTH; type: in vivo, Abutilon theophrasti
In short: as §1

[8] = system: LOLRI; experiment: Pre-emergence action against LOLRI; type: in vivo, Lolium rigidum; settings: dosage 320 g/ha, scored visually after 3 weeks vs untreated controls
Source text: Seeds of monocotyledonous and dicotyledonous weed plants and crop plants are laid out in sandy loam soil in wood-fiber pots and covered with soil. The compounds of the invention, formulated in the form of wettable powders (WP) or as emulsion concentrates (EC), are then applied to the surface of the covering soil in the form of an aqueous suspension or emulsion at a water application rate equating to […], with addition of 0.2% wetting agent. After the treatment, the pots are placed in a greenhouse and kept under good growth conditions for the trial plants. The damage to the test plants is scored visually after a test period of 3 weeks by comparison with untreated controls (herbicidal activity in percent (%): 100% activity=the plants have died, 0% activity=like control plants).

[9] = system: SETVI; experiment: Pre-emergence action against SETVI; type: in vivo, Setaria viridis; settings: pre-emergence, dosage 320 g/ha, scored visually after 3 weeks vs untreated controls
In short: as §1

[10] = system: CYPES; experiment: Pre-emergence action against CYPES; type: in vivo, Cyperus esculentus; settings: pre-emergence, dosage 320 g/ha, scored visually after 3 weeks vs untreated controls
In short: as §1

[11] = system: MATIN; experiment: Pre-emergence action against MATIN; type: in vivo, Matricaria inodora
In short: as §1

[12] = system: CYPES; experiment: Post-emergence action against CYPES; type: in vivo, Cyperus esculentus; settings: for Post-emergence action against CYPES (herbicidal action in percent): dosage 80 g/ha, visual assessment about 3 weeks after treatment vs untreated controls
In short: as §2

[13] = system: POLCO; experiment: Pre-emergence action against POLCO; type: in vivo, Polygonum convolvulus; settings: Dosage 320 g/ha, pre-emergence
In short: as §1

[14] = system: MATIN; experiment: Post-emergence action against MATIN; type: in vivo, Matricaria inodora; settings: for Post-emergence action against MATIN (herbicidal action in percent): dosage 80 g/ha, visual assessment about 3 weeks after treatment vs untreated controls
In short: as §2

[15] = system: ABUTH; experiment: Post-emergence action against ABUTH; type: in vivo, Abutilon theophrasti; settings: for Post-emergence action against ABUTH (herbicidal action in percent): dosage 80 g/ha, visual assessment about 3 weeks after treatment vs untreated controls
In short: as §2

[16] = system: VERPE; experiment: Post-emergence action against VERPE; type: in vivo, Veronica persica; settings: dosage 80 g/ha
In short: as §2

[17] = system: AVEFA; experiment: Post-emergence action against AVEFA; type: in vivo, Avena fatua; settings: post-emergence, dosage 80 g/ha, visual assessment about 3 weeks after treatment vs untreated controls
In short: as §2

[18] = system: SETVI; experiment: Post-emergence action against SETVI; type: in vivo, Setaria viridis; settings: post-emergence, dosage 80 g/ha, visual assessment about 3 weeks after treatment vs untreated controls
In short: as §2

[19] = system: POLCO; experiment: Post-emergence action against POLCO; type: in vivo, Polygonum convolvulus; settings: for Post-emergence action against POLCO: dosage 80 g/ha
In short: as §2

[20] = system: AMARE; experiment: Post-emergence action against AMARE; type: in vivo, Amaranthus retroflexus; settings: post-emergence, dosage 80 g/ha, visual assessment about 3 weeks after treatment vs untreated controls
In short: as §2

[21] = system: ALOMY; experiment: Pre-emergence action against ALOMY; type: in vivo, Alopecurus myosuroides; settings: dosage 320 g/ha; pre-emergence; scored visually after 3 weeks vs untreated controls; 100% = plants have died, 0% = like control plants
In short: as §1

[22] = system: AVEFA; experiment: Pre-emergence action against AVEFA; type: in vivo, Avena fatua; settings: dosage 320 g/ha, scored visually after 3 weeks vs untreated controls
In short: as §1

[23] = system: PHBPU; experiment: Pre-emergence action against PHBPU; type: in vivo, Pharbitis purpurea; settings: Dosage 320 g/ha, pre-emergence
In short: as §1

[24] = system: ALOMY; experiment: Post-emergence action against ALOMY; type: in vivo, Alopecurus myosuroides
In short: as §2

[25] = system: VIOTR; experiment: Post-emergence action against VIOTR; type: in vivo, Viola tricolor; settings: for Post-emergence action against VIOTR: dosage 80 g/ha
In short: as §2

[26] = system: ECHCG; experiment: Post-emergence action against ECHCG; type: in vivo, Echinochloa crus-galli; settings: post-emergence, dosage 80 g/ha, visual assessment about 3 weeks after treatment vs untreated controls
In short: as §2

[27] = system: PHBPU; experiment: Post-emergence action against PHBPU; type: in vivo, Pharbitis purpurea; settings: post-emergence, dosage 80 g/ha
In short: as §2

[28] = Table V20, post-emergence, 80 g of a.i./ha
[29] = Table V17, post-emergence, 5 g of a.i./ha
[30] = pre-emergence, dosage 320 g/ha, scored visually after 3 weeks vs untreated controls
[31] = Table V7, pre-emergence, 20 g of a.i./ha

SMILES | Post-emergence action against CYPES (herbicidal action in percent) [12] [%] | Post-emergence action against MATIN (herbicidal action in percent) [14] [%] | Post-emergence action against ABUTH (herbicidal action in percent) [15] [%] | Post-emergence action against STEME [2] | Pre-emergence action against VERPE [3] [%] | Pre-emergence action against AMARE (herbicidal activity) [4, 30] [%] | Pre-emergence action against ECHCG (herbicidal activity) [5] [%] | Pre-emergence action against VIOTR ([6]; Dosage 320 g/ha, pre-emergence) [%] | Post-emergence action against SETVI (herbicidal action in percent) [18] [%] | Post-emergence action against AMARE (herbicidal action in percent) [20] [%] | Pre-emergence action against ALOMY (herbicidal activity in percent) [21] [%] | Pre-emergence action against AVEFA (herbicidal activity) [22] [%] | Pre-emergence action against ABUTH (herbicidal activity) [7, 30] [%] | Pre-emergence action against PHBPU [23] [%] | Post-emergence action against VIOTR [25] | Post-emergence action against ECHCG (herbicidal action in percent) [26] [%] | Post-emergence action against PHBPU [27] | SETVI (Table B8, pre-emergence herbicidal activity) [9] [%] | Pre-emergence action against CYPES (herbicidal activity) [10] [%] | Pre-emergence action against MATIN ([11]; Dosage 320 g/ha, pre-emergence) [%] | other results
Cn1nnnc1NC(=O)c1ccc(C(F)(F)F)c(C(=O)C(C)(C)C)c1Cl [1-143] |  |  |  |  |  |  |  |  |  |  |  |  |  |  |  |  |  |  |  |  | pest or weed control at 320 g/ha ([1]; Stellaria media, 504 h): 100%; pest or weed control at 80 g/ha ([2]; Stellaria media, 504 h): 100%; pest or weed control at 320 g/ha ([3]; Veronica persica, 504 h): 100%; pest or weed control at 320 g/ha ([4]; Amaranthus retroflexus, 504 h, pre-emergence, dosage 320 g/ha, scored visually after 3 weeks vs untreated controls, read-out: Pre-emergence action against AMARE (herbicidal activity)): 100%; pest or weed control at 320 g/ha ([5]; Echinochloa crus-galli, 504 h, read-out: Pre-emergence action against ECHCG (herbicidal activity)): 100%; pest or weed control at 320 g/ha ([6]; Viola tricolor, 504 h, Dosage 320 g/ha, pre-emergence): 100%; pest or weed control at 320 g/ha ([7]; Abutilon theophrasti, 504 h, pre-emergence, dosage 320 g/ha, scored visually after 3 weeks vs untreated controls, read-out: Pre-emergence action against ABUTH (herbicidal activity)): 100%; pest or weed control at 320 g/ha ([8]; Lolium rigidum, 504 h, read-out: Pre-emergence action against LOLRI (herbicidal activity)): 80%; pest or weed control at 320 g/ha ([9]; Setaria viridis, 504 h, read-out: SETVI (Table B8, pre-emergence herbicidal activity)): 90%; pest or weed control at 320 g/ha ([10]; Cyperus esculentus, 504 h, read-out: Pre-emergence action against CYPES (herbicidal activity)): 90%; pest or weed control at 320 g/ha ([11]; Tripleurospermum inodorum, 504 h, Dosage 320 g/ha, pre-emergence): 100%
CCn1nnnc1NC(=O)c1ccc(S(C)(=O)=O)c(C(=O)C2CC2)c1C [2-9] | 90 | 100 | 90 | 100 | 100 | 100 | 100 | 100 | 90 | 100 | 90 | 100 | 100 | 90 | 100 | 90 | 100 | 100 | 90 | 100 | Herbicidal efficacy against CYPES [12, 28]: 90; Pre-emergence action against POLCO [13]: 80%; Herbicidal efficacy against MATIN [14, 29]: 90; Herbicidal efficacy against ABUTH [15, 28]: 90; Herbicidal efficacy against AMARE ([4]; Table V13, pre-emergence, 20 g of a.i./ha): 100; Post-emergence action against VERPE [16]: 100; Post-emergence action against AVEFA (herbicidal action in percent) [17]: 100%; Herbicidal efficacy against VIOTR ([6]; Table V7, pre-emergence): 90; Herbicidal efficacy against VIOTR ([6]; Table V13, pre-emergence): 90; Herbicidal efficacy against POLCO [19, 28]: 100; Post-emergence action against POLCO [19]: 100; Herbicidal efficacy against ABUTH [7, 31]: 100; Post-emergence action against ALOMY ([24]; Dosage 80 g/ha, post-emergence): 90%; Herbicidal efficacy against ALOMY [24, 28]: 90; Herbicidal efficacy against VIOTR [25, 29]: 100; Herbicidal efficacy against MATIN [11, 31]: 80
CCn1nnnc1NC(=O)c1ccc(C(F)(F)F)c(C(=O)COC)c1Cl [2-144] |  | 90 | 90 | 100 | 100 | 100 | 100 | 100 | 100 | 100 | 100 | 100 | 100 | 100 | 100 | 100 | 100 | 100 | 100 | 100 | Pre-emergence action against STEME [1]: 100%; Post-emergence action against VERPE [16]: 90; Pre-emergence action against LOLRI (herbicidal activity) [8]: 100%
CCCn1nnnc1NC(=O)c1ccc(C(F)F)c(C(C)=O)c1Cl [3-164] | 90 | 100 | 90 | 100 | 100 | 100 | 100 | 100 | 100 | 100 | 90 | 100 | 100 | 90 | 100 | 100 | 100 | 100 | 100 | 100 | Pre-emergence action against POLCO [13]: 100%; Pre-emergence action against STEME [1]: 100%; Post-emergence action against AVEFA (herbicidal action in percent) [17]: 80%; Post-emergence action against POLCO [19]: 80; Pre-emergence action against LOLRI (herbicidal activity) [8]: 90%
